The structures appear in SMILES notation. A value given as a limit tells only on which side of the number the result lay.

This experiment concerns Aβ40 in conditioned medium of cells stably expressing Amyloid Precursor Protein (APP). As to the kind of experiment: BACE cell-based assay: Aβ40 in conditioned medium by sandwich ELISA. Particulars: cell based assay data of Table 4; unit inferred; read-out: Cell Assay. The essentials: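 Aβ40 in conditioned medium was read by time-resolved fluorescence sandwich ELISA (capture pAb40, detection biotinylated 6E10, 4° C incubations). Compounds were applied for 24 h to cells stably expressing APP, at 10 doses from 100 or 10 μM top, 0.1% DMSO. IC50 derived from percent of control.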
Background: ELISA stands for enzyme-linked immunosorbent assay.
Regarding `CC(=O)N[C@@H](Cc1cc(C)nc(Cl)c1)[C@H](O)CN[C@H]1CC2(CCC2)Oc2ncc(CC(C)(C)C)cc21` [compound 644, N-((1S,2R)-1-((2-chloro-6-methyl-4-pyridinyl)methyl)-3-(((4′S)-6′-(2,2-dimethylpropyl)-3′,4′-dihydrospiro[cyclobutane-1,2′-pyrano[2,3-b]pyridin]-4′-yl)amino)-2-hydroxypropyl)acetamide], the IC50 came to 6.32 nM. Consider `CC(=O)N[C@@H](Cc1ccnc(OCC(F)(F)F)c1)[C@H](O)CN[C@H]1CC2(CCC2)Oc2ncc(CC(C)(C)C)cc21` [compound 645, N-((1S,2R)-3-(((4′S)-6′-(2,2-dimethylpropyl)-3′,4′-dihydrospiro[cyclobutane-1,2′-pyrano[2,3-b]pyridin]-4′-yl)amino)-2-hydroxy-1-((2-((2,2,2-trifluoroethyl)oxy)-4-pyridinyl)methyl)propyl)acetamide], for which the IC50 is 5.16 nM. In the case of `CC(=O)N[C@@H](Cc1cc2ccccc2o1)[C@H](O)CN[C@H]1CC2(CCC2)Oc2ncc(CC(C)(C)C)cc21` [compound 646, N-((1S,2R)-1-(1-benzofuran-2-ylmethyl)-3-(((4′S)-6′-(2,2-dimethylpropyl)-3′,4′-dihydrospiro[cyclobutane-1,2′-pyrano[2,3-b]pyridin]-4′-yl)amino)-2-hydroxypropyl)acetamide], the IC50 worked out at 52.9 nM. For `CC(=O)N[C@@H](Cc1ccnc(C(F)(F)F)n1)[C@H](O)CN[C@H]1CC2(CCC2)Oc2ncc(CC(C)(C)C)cc21` [compound 647, N-((1S,2R)-3-(((4′S)-6′-(2,2-dimethylpropyl)-3′,4′-dihydrospiro[cyclobutane-1,2′-pyrano[2,3-b]pyridin]-4′-yl)amino)-2-hydroxy-1-((2-(trifluoromethyl)-4-pyrimidinyl)methyl)propyl)acetamide], the IC50 turned out to be 152 nM.

Consider `CC(=O)N[C@@H](Cc1ccc(C(F)(F)F)cc1)[C@H](O)CN[C@H]1CC2(CCC2)Oc2ncc(CC(C)(C)C)cc21` [compound 648], for which the IC50 turned out to be 189 nM. With `CC(=O)N[C@@H](Cc1ccn(C)c(=O)c1)[C@H](O)CN[C@H]1CC2(CCC2)Oc2ncc(CC(C)(C)C)cc21` [compound 649], the IC50 was 30 nM. Consider `CC(=O)N[C@@H](Cc1ccc(F)cc1)[C@H](O)CN[C@H]1CC2(CCC2)Oc2ncc(CC(C)(C)C#N)cc21` [compound 650], for which the IC50 turned out to be 20.2 nM. As for `CC(=O)N[C@@H](Cc1cccc(F)c1)[C@H](O)CN[C@H]1CC2(CCC2)Oc2ncc(CC(C)(C)C#N)cc21` [compound 651], the IC50 amounted to 4.24 nM.

On to `CC(=O)N[C@@H](Cc1ccccc1)[C@H](O)CN[C@H]1CC2(CCC2)Oc2ncc(CC(C)(C)C(F)F)cc21` [compound 652], for which the IC50 was found to be 7.84 nM. Consider `CCc1cc2c(s1)CC1(CCC1)C[C@@H]2NC[C@@H](O)[C@H](Cc1ccccc1)NC(C)=O` [compound 653, N-((1S,2R)-3-(((4S)-2-ethyl-4,7-dihydro-5H-spiro[1-benzothiophene-6,1′-cyclobutan]-4-yl)amino)-2-hydroxy-1-(phenylmethyl)propyl)acetamide], for which the IC50 worked out at 127 nM. As for `CC(=O)N[C@@H](Cc1ccccc1)[C@H](O)CN[C@H]1CC(C)(C)Cc2sc(CC(C)(C)C)cc21` [compound 654, N-((1S,2R)-3-(((4S)-2-(2,2-dimethylpropyl)-6,6-dimethyl-4,5,6,7-tetrahydro-1-benzothien-4-yl)amino)-2-hydroxy-1-(phenylmethyl)propyl)acetamide], the IC50 turned out to be 13.8 nM. For the compound `COC(=O)N[C@@H](Cc1ccccc1)[C@H](O)CN[C@H]1CC(C)(C)Cc2sc(CC(C)(C)C)cc21` [compound 655, methyl ((1S,2R)-3-(((4S)-2-(2,2-dimethylpropyl)-6,6-dimethyl-4,5,6,7-tetrahydro-1-benzothien-4-yl)amino)-2-hydroxy-1-(phenylmethyl)propyl)carbamate], the IC50 was determined as 105 nM. `CC(=O)N[C@@H](Cc1cc(F)cc(F)c1)[C@H](O)CN[C@H]1CC2(CCC2)Oc2nc(F)c(CC(C)(C)C)cc21` [compound 659]: the IC50 worked out at 6.42 nM. For the compound `CC(=O)N[C@@H](Cc1cccc(F)c1)[C@H](O)CN[C@H]1CC2(CCC2)Oc2nc(F)c(CC(C)(C)C)cc21` [compound 661], the IC50 was determined as 10.2 nM. For the compound `CC(=O)N[C@@H](Cc1ccc(F)cc1)[C@H](O)CN[C@H]1CC2(CCC2)Oc2nc(F)c(CC(C)(C)C)cc21` [compound 662], the IC50 came out at 94.7 nM.

Consider `COc1ccc(C[C@H](NC(C)=O)[C@H](O)CN[C@H]2CC3(CCC3)Oc3ncc(CC(C)(C)C)cc32)cc1F` [compound 665], for which the IC50 worked out at 8.53 nM. Next, `COc1ccc(C[C@H](NC(C)=O)[C@@H](O)CN[C@H]2CC3(CCC3)Oc3ncc(CC(C)(C)C)cc32)cc1F` [compound 666]: 162 nM; `CC(=O)N[C@@H](Cc1ccc(Cl)cc1)[C@H](O)CN[C@H]1CC2(CCC2)Oc2nc(F)c(CC(C)(C)C)cc21` [compound 667]: 385 nM; `CC(=O)N[C@@H](Cc1ccc(Cl)cc1)[C@H](O)CN[C@H]1C[C@@]2(CCOC2)Oc2ncc(CC(C)(C)C)cc21` [compound 669]: no less than 10000 nM. For `CC(=O)N[C@@H](Cc1ccc(Cl)cc1)[C@H](O)CN[C@H]1C[C@]2(CCOC2)Oc2ncc(CC(C)(C)C)cc21` [compound 670, N-((1S,2R)-1-((4-chlorophenyl)methyl)-3-(((3R,4′S)-6′-(2,2-dimethylpropyl)-3′,4,4′,5-tetrahydrospiro[furan-3,2′-pyrano[2,3-b]pyridin]-4′-yl)amino)-2-hydroxypropyl)acetamide], the IC50 amounted to 51.8 nM.

On to `CC(=O)N[C@@H](Cc1ccc(F)cc1)[C@H](O)CN[C@H]1C[C@@]2(CCOC2)Oc2ncc(CC(C)(C)C)cc21` [compound 671], for which the IC50 was 20.5 nM.

For `CC(=O)N[C@@H](Cc1ccc(F)cc1)[C@H](O)CN[C@H]1C[C@]2(CCOC2)Oc2ncc(CC(C)(C)C)cc21` [compound 672], the IC50 came out at 23.8 nM. With `CC(=O)N[C@@H](Cc1ccc(F)cc1)[C@H](O)CN[C@H]1CC2(CCC2)Oc2ncc([C@@H](F)C(C)(C)C)cc21` [compound 674], the IC50 was found to be 1080 nM. As to `CC(=O)N[C@@H](Cc1ccc(F)cc1)[C@H](O)CN[C@H]1CC2(CCC2)Oc2ncc([C@H](F)C(C)(C)C)cc21` [compound 675], the IC50 was determined as 12.1 nM.

On to `CC(=O)N[C@@H](Cc1ccc(F)c(C(F)(F)F)c1)[C@H](O)CN[C@H]1CC2(CCC2)Oc2ncc(CC(C)(C)C)cc21` [compound 676], for which the IC50 amounted to 18.1 nM. As to `CC(=O)N[C@@H](Cc1cccc(F)c1F)[C@H](O)CN[C@H]1CC2(CCC2)Oc2ncc([C@H](F)C(C)(C)C)cc21` [compound 677], the IC50 is 8.61 nM. Turning to `CC(=O)N[C@@H](Cc1cccc(F)c1)[C@H](O)CN[C@H]1CC2(CCC2)Oc2ncc([C@H](F)C(C)(C)C)cc21` [compound 678], the IC50 came out at 2.07 nM. On to `CC(=O)N[C@@H](Cc1ccccc1)[C@H](O)CN[C@H]1CC2(CCC2)Oc2ncc([C@H](F)C(C)(C)C)cc21` [compound 679], for which the IC50 worked out at 6.04 nM. For `CC(=O)N[C@@H](Cc1ccc(Cl)cc1)[C@H](O)CN[C@H]1CC2(CCC2)Oc2ncc([C@H](F)C(C)(C)C)cc21` [compound 680] the value was 23.1 nM; for `CC(=O)N[C@@H](Cc1cc(F)cc(F)c1)[C@H](O)CN[C@H]1CC2(CCC2)Oc2ncc([C@H](F)C(C)(C)C)cc21` [compound 681], 3.46 nM; for `CC(=O)N[C@@H](Cc1ccc(F)cc1)[C@H](O)CN[C@H]1CC2(CCC2)Oc2ncc(CC3CCC3)cc21` [compound 682], 66.5 nM. As for `CC(=O)N[C@@H](Cc1ccc(F)cc1)[C@H](O)CN[C@@H]1c2cc(CC(C)(C)C)cnc2N2CCC[C@@H]12` [compound 683], the IC50 is 524 nM.

`CCCCC(O)c1cnc2c(c1)[C@@H](NC[C@@H](O)[C@H](Cc1ccc(F)cc1)NC(C)=O)CC1(CCC1)O2` (stereo partly drawn) [compound 684]: the IC50 turned out to be 2860 nM. For `CC(=O)N[C@@H](Cc1cc(F)c(F)cc1F)[C@H](O)CN[C@H]1CC2(CCC2)Oc2ncc(CC(C)(C)C)cc21` [compound 685] the value was 9.28 nM; for `CC(=O)N[C@@H](Cc1cc(F)c(F)c(F)c1)[C@H](O)CN[C@H]1CC2(CCC2)Oc2ncc(CC(C)(C)C)cc21` [compound 686], 7.07 nM.

As for `CC(=O)N[C@@H](Cc1cc(F)cc(F)c1)[C@H](O)CN[C@H]1CC2(CCC2)Oc2ncc(CC3CC3)cc21` [compound 687], the IC50 was determined as 7.84 nM. For `CCC(CC)Cc1cnc2c(c1)[C@@H](NC[C@@H](O)[C@H](Cc1cc(F)cc(F)c1)NC(C)=O)CC1(CCC1)O2` [compound 691], the IC50 stood at 95.8 nM. Regarding `CC(=O)N[C@@H](Cc1ccccc1)[C@H](O)CN[C@H]1CC(C)(C)Nc2ccc(CC(C)(C)C)cc21` [compound 692], the IC50 came to 30.6 nM. Take `CC(=O)N[C@@H](Cc1cc(F)cc(F)c1)[C@H](O)CN[C@H]1CC(C)(C)Nc2ccc(CC(C)(C)C)cc21` [compound 693]: the IC50 turned out to be 5.49 nM.

With `CCCc1cnc2c(c1)[C@@H](NC[C@@H](O)[C@H](Cc1ccc(F)cc1)NC(C)=O)CC1(CCC1)O2` [compound 694], the IC50 came to 37.2 nM. For `CC[C@H](C)Cc1cnc2c(c1)[C@@H](NC[C@@H](O)[C@H](Cc1ccc(F)cc1)NC(C)=O)CC1(CCC1)O2` [compound 695], the IC50 was determined as 43.4 nM.

Regarding `CC(=O)N[C@@H](Cc1ccc(F)cc1)[C@H](O)CN[C@H]1CC2(CCC2)Oc2ncc(C=C(C)C)cc21` [compound 696], the IC50 was 254 nM.

As for `CC(=O)N[C@@H](Cc1ccc(F)cc1)[C@H](O)CN[C@H]1CC2(CCC2)Oc2ncc(C(=O)C(C)(C)C)cc21` [compound 697], the IC50 came out at 277 nM. With `[N-]=[N+]=NCC(=O)N[C@@H](Cc1ccccc1)[C@H](O)CN[C@H]1CC2(CCC2)Oc2ccc(Br)cc21` [compound 698], the IC50 came out at 2380 nM. Take `CC(=O)N[C@@H](Cc1cccc(C#N)c1)[C@H](O)CN[C@H]1CC2(CCC2)Oc2ncc(C(F)(F)F)cc21` [compound 699]: the IC50 turned out to be 849 nM.

(Values after patent US7973047B2, “Beta-Secretase modulators and methods of use” (Amgen Inc., priority 2010, dated 2011).)
